Inconclusive results are not listed. Active and inactive are the calls of the source.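 The calls were made as follows: active = valid dose-response fit whose half-maximal growth-inhibiting concentration is at or below a set limit above the top tested dose; inconclusive = flat fit with effect between 30 and 70%, or poor fit; inactive = half-maximal concentration above a set limit.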
Experiment: antibacterial activity against Clostridioides difficile – 10-point retest, dose response (AID 1259246)
Conditions: Clostridioides difficile clinical isolate growth, OD600, 24 h

SMILES | activity change, negative = inhibition (at 120 µM (top of the series)) | other results
CNC[C@H]1Oc2c(NC(=O)Nc3ccc(F)cc3)cccc2C(=O)N([C@H](C)CO)C[C@@H]1C |  | activity change, negative = inhibition (at 135 µM (top of the series)): 0.222% (inactive)
C[C@@H]1CN([C@@H](C)CO)C(=O)Cc2cc(NC(=O)c3ccncc3)ccc2O[C@@H]1CN(C)Cc1ccc(-c2ccccc2)cc1 | 19.7% (inactive) | 
COc1ccccc1C#Cc1ccc([C@H]2[C@@H](C#N)N(C(=O)C3CCCCC3)[C@H]2CO)cc1 |  | activity change, negative = inhibition (at 60 µM (top of the series)): 5.31% (inactive)
CNC[C@H]1OCCCC[C@H](C)Oc2ccc(NC(=O)Nc3cccc4ccccc34)cc2C(=O)N([C@H](C)CO)C[C@@H]1C | 11.4% (inactive) | 
C[C@@H]1CN([C@@H](C)CO)C(=O)Cc2cc(NC(=O)CCCN(C)C)ccc2O[C@H]1CN(C)S(C)(=O)=O |  | activity change, negative = inhibition (at 135 µM (top of the series)): -4.68% (inactive)
C[C@@H]1CN([C@H](C)CO)S(=O)(=O)c2ccc(/C=C/c3ccccc3)cc2O[C@H]1CN(C)C(=O)c1ccncc1 | 17.1% (inactive) | 
C[C@@H]1CN([C@H](C)CO)C(=O)c2cccc(NC(=O)Nc3ccc(C(F)(F)F)cc3)c2O[C@H]1CN(C)C(=O)NC1CCCCC1 | 28.2% (inactive) | 
CC(C)CC#Cc1ccc2c(c1)O[C@H](CN(C)Cc1ccc3c(c1)OCO3)[C@@H](C)CN([C@@H](C)CO)S2(=O)=O | 21.9% (inactive) | 
COc1ccc(S(=O)(=O)N(C)C[C@H]2Oc3c(NS(=O)(=O)c4ccccc4)cccc3C(=O)N([C@H](C)CO)C[C@@H]2C)cc1 | 28% (inactive) | 
COc1ccc(S(=O)(=O)Nc2cccc3c2O[C@@H](CN(C)S(=O)(=O)c2c(C)noc2C)[C@H](C)CN([C@H](C)CO)C3=O)cc1 | -3.81% (inactive) | 
C[C@@H]1CN([C@H](C)CO)C(=O)c2cc(NC(=O)Nc3cccc4ccccc34)ccc2O[C@@H](C)CCCCO[C@H]1CN(C)S(C)(=O)=O | 1.6% (inactive) | 
CC(C)CC#Cc1ccc2c(c1)O[C@@H](CN(C)CC1CCOCC1)[C@H](C)CN([C@@H](C)CO)S2(=O)=O | 13.6% (inactive) | 
C[C@@H]1CN([C@H](C)CO)C(=O)c2cccc(NC(=O)Nc3ccc(C(F)(F)F)cc3)c2O[C@@H]1CN(C)C(=O)Nc1ccc(F)cc1 | -4.05% (inactive) | 
Cc1ccc(S(=O)(=O)N[C@H]2CC[C@@H](CCNS(=O)(=O)Cc3ccccc3)O[C@H]2CO)cc1 |  | activity change, negative = inhibition (at 135 µM (top of the series)): 3.07% (inactive)
CC(C)CC#Cc1ccc2c(c1)O[C@H](CN(C)Cc1ccccc1F)[C@H](C)CN([C@H](C)CO)S2(=O)=O | 21.7% (inactive) | 
CO[C@@H]1CN(C)C(=O)c2ccc(NC(=O)C3CCC3)cc2OC[C@@H](C)N(Cc2ccncc2)C[C@H]1C | -0.707% (inactive) | 
CO[C@@H]1CN(C)C(=O)c2cc(NC(=O)c3nc4ccccc4s3)ccc2OC[C@H](C)N(Cc2ccncc2)C[C@@H]1C | 13.2% (inactive) | 
O=S(=O)(NCC[C@H]1CC[C@H](NS(=O)(=O)c2ccccc2Cl)[C@H](CO)O1)c1ccc(Cl)cc1 | -7.26% (inactive) | 
C[C@H]1CN([C@@H](C)CO)S(=O)(=O)c2ccc(C#CC3CCCCC3)cc2O[C@H]1CN(C)Cc1cccnc1 | 19.1% (inactive) | 
C[C@H]1CN([C@@H](C)CO)C(=O)c2cccc(NC(=O)Nc3ccc4c(c3)OCO4)c2O[C@@H]1CN(C)Cc1ccc(-c2ccccc2)cc1 | 2.11% (inactive) | 
CNC[C@@H]1Oc2ccc(NC(=O)CCCN(C)C)cc2CC(=O)N([C@@H](C)CO)C[C@H]1C | -5.36% (inactive) | 
CO[C@@H]1CN(C)C(=O)c2ccc(NC(=O)c3ccc(-c4ccccc4)cc3)cc2OC[C@@H](C)NC[C@H]1C |  | activity change, negative = inhibition (at 60 µM (top of the series)): 25.2% (inactive)

SMILES | activity change, negative = inhibition (at 120 µM (top of the series)) | other results
C[C@H]1CN([C@@H](C)CO)C(=O)Cc2cc(NC(=O)C3CC3)ccc2O[C@H]1CN(C)Cc1ccc(Oc2ccccc2)cc1 |  | activity change, negative = inhibition (at 135 µM (top of the series)): 26.6% (inactive)
C[C@H]1CN([C@@H](C)CO)C(=O)Cc2cc(NC(=O)CCCN(C)C)ccc2O[C@@H]1CN(C)Cc1ccc(-c2ccccc2)cc1 |  | activity change, negative = inhibition (at 135 µM (top of the series)): -3.4% (inactive)
C[C@@H]1CN([C@@H](C)CO)C(=O)Cc2cc(NC(=O)C3CC3)ccc2O[C@H]1CN(C)Cc1ccc(-c2ccccc2)cc1 | 25% (inactive) | 
O=C(C[C@H]1C[C@H]2c3cc(NS(=O)(=O)c4ccc(F)cc4)ccc3O[C@H]2[C@H](CO)O1)NCc1ccc(-c2ccccc2)cc1 | 17.8% (inactive) | 
C[C@@H]1CN([C@H](C)CO)C(=O)Cc2cc(NC(=O)Nc3ccccc3)ccc2O[C@@H]1CN(C)Cc1ccc(-c2ccccc2)cc1 |  | activity change, negative = inhibition (at 135 µM (top of the series)): 12.7% (inactive)
COc1ccccc1C#Cc1ccc([C@H]2[C@@H](CO)N(C(=O)C3CC3)[C@H]2C#N)cc1 | 27.5% (inactive) | 
C[C@@H]1CN([C@H](C)CO)C(=O)c2cc(NC(=O)c3ccccc3)ccc2O[C@@H](C)CCCCO[C@H]1CN(C)S(=O)(=O)c1ccc(F)cc1 | 10.1% (inactive) | 
C[C@@H]1CCCCO[C@H](CN(C)S(=O)(=O)c2ccc(F)cc2)[C@@H](C)CN([C@H](C)CO)C(=O)c2cc(NC(=O)Nc3cccc4ccccc34)ccc2O1 | 7.93% (inactive) | 
C[C@@H]1CN([C@@H](C)CO)C(=O)Cc2cc(NC(=O)CCCN(C)C)ccc2O[C@H]1CN(C)Cc1ccc(C(F)(F)F)cc1 | 23.8% (inactive) | 
CC(C)CC#Cc1ccc2c(c1)O[C@@H](CN(C)Cc1cccnc1)[C@H](C)CN([C@@H](C)CO)S2(=O)=O | 29.9% (inactive) | 
COc1ccc(-c2ccc([C@H]3[C@H](C#N)N(C(=O)C4CC4)[C@H]3CO)cc2)cc1 |  | activity change, negative = inhibition (at 135 µM (top of the series)): -0.086% (inactive)
CC(C)NC(=O)Nc1ccc2c(c1)CC(=O)N([C@H](C)CO)C[C@@H](C)[C@@H](CN(C)Cc1ccc(-c3ccccc3)cc1)O2 | 20.5% (inactive) | 
CC(C)CC#Cc1ccc2c(c1)O[C@H](CN(C)Cc1cccnc1)[C@@H](C)CN([C@@H](C)CO)S2(=O)=O | 20.5% (inactive) | 
O=C(O)C[C@H]1C[C@@H]2c3cc(NC(=O)C4CCC4)ccc3O[C@@H]2[C@@H](CO)O1 |  | activity change, negative = inhibition (at 60 µM (top of the series)): -2.3% (inactive)
O=C(Nc1ccc(-c2ccccc2)cc1)[C@H]1[C@H](CO)[C@H]2Cn3c(cccc3=O)[C@H]2N1CC1CCCCC1 |  | activity change, negative = inhibition (at 135 µM (top of the series)): 32.6% (inactive)
C[C@H](CO)N1C[C@H](C)[C@@H](CN(C)C(=O)NC2CCCCC2)Oc2c(NC(=O)Nc3ccc(F)cc3)cccc2C1=O | 9.73% (inactive) | 
O=C(C[C@@H]1C[C@H]2c3cc(NC(=O)C4CCC4)ccc3O[C@H]2[C@@H](CO)O1)NCc1ccc(Cl)cc1 |  | activity change, negative = inhibition (at 135 µM (top of the series)): 6.13% (inactive)
C[C@@H]1CN([C@H](C)CO)C(=O)Cc2cc(N(C)C)ccc2O[C@@H]1CN(C)Cc1ccc(Oc2ccccc2)cc1 |  | activity change, negative = inhibition (at 135 µM (top of the series)): 23.7% (inactive)
Cc1ccc(S(=O)(=O)N[C@H]2CC[C@@H](CCNS(=O)(=O)Cc3ccccc3)O[C@@H]2CO)cc1 | -4.91% (inactive) | 
C[C@@H]1CN([C@@H](C)CO)S(=O)(=O)c2ccc(C#CC3CCCC3)cc2O[C@H]1CN(C)Cc1cccnc1 | 23.5% (inactive) | 
CO[C@@H]1CN(C)C(=O)c2cc(NC(=O)c3nc4ccccc4s3)ccc2OC[C@H](C)N(Cc2ccncc2)C[C@H]1C |  | activity change, negative = inhibition (at 135 µM (top of the series)): 7% (inactive)

Source: PubChem BioAssay AID1259246 (Broad Institute, 2017)
